Data from ChEMBL document CHEMBL5338805, “Discovery of the First Subnanomolar PPARα/δ Dual Agonist for the Treatment of Cholestatic Liver Diseases” (J Med Chem, 2023).
Calls of active or inactive are those of the source. No cut-off for these calls is given here.

Experiments:
[1] = Anti-cholestatic activity in ANIT-induced C57BL/6Nifdc mouse model assessed as decrease in liver DHLCA at 0.03 to 0.1 mg/kg, po upto 42 hrs measured after 48 hrs; assay type: ADME, organism-based; details: in vivo, 90 h, dose 0.03-0.1 mg/kg
[2] = Anti-cholestatic activity in ANIT-induced C57BL/6Nifdc mouse model assessed as downregulation of proinflammatory Ccl4 gene at 0.03 to 0.1 mg/kg, po upto 42 hrs measured after 48 hrs; assay type: ADME, organism-based; details: in vivo, 90 h, dose 0.03-0.1 mg/kg
[3] = Anti-cholestatic activity in ANIT-induced C57BL/6Nifdc mouse model assessed as decrease in liver TUDCA at 0.03 to 0.1 mg/kg, po upto 42 hrs measured after 48 hrs; assay type: ADME, organism-based; details: in vivo, 90 h, dose 0.03-0.1 mg/kg
[4] = Anti-cholestatic activity in ANIT-induced C57BL/6Nifdc mouse model assessed as decrease in serum aspartate aminotransferase at 0.03 to 0.1 mg/kg, po upto 42 hrs measured after 48 hrs; assay type: ADME, organism-based; details: in vivo, 90 h, dose 0.03-0.1 mg/kg
[5] = Anti-fibrosis activity in Ccl4-induced C57BL/6Nifdc mouse model assessed as reversal of increased alpha-SMA administered orally for 3 weeks by Western blot analysis; assay type: ADME; details: in vivo, po, 504 h, dose 0.03-0.1 mg/kg
[6] = In vivo upregulation of PPAR delta in C57BL/6JNifdc mouse liver administered at 0.03 mg/kg, po for 3 days measured after 6 hrs of last administration by real-time PCR analysis; assay type: ADME, organism-based; details: 78 h
[7] = Down-streaming of NTCP gene expression in C57BL/6JNifdc mouse liver assessed as hepatic resorption of bile acid administered at 0.03 mg/kg, po for 3 days measured after 6 hrs of last administration by real-time PCR analysis; assay type: ADME, organism-based; details: in vivo, 78 h
[8] = Anti-cholestatic activity in ANIT-induced C57BL/6Nifdc mouse model assessed as decrease in liver HCA at 0.03 to 0.1 mg/kg, po upto 42 hrs measured after 48 hrs; assay type: ADME, organism-based; details: in vivo, 90 h, dose 0.03-0.1 mg/kg
[9] = Anti-cholestatic activity in ANIT-induced C57BL/6Nifdc mouse model assessed as decrease in serum TBA at 0.03 to 0.1 mg/kg, po upto 42 hrs measured after 48 hrs; assay type: ADME, organism-based; details: in vivo, 90 h, dose 0.03-0.1 mg/kg
[10] = molecular target: Retinoic acid receptor beta (Homo sapiens) (UniProt P10826); test: Agonist activity at RARbeta (unknown origin) transfected in african green monkey COS7 cells assessed transactivation incubated at 1 uM for 16 hrs by luciferase assay; assay type: cell-based
Chain of Retinoic acid receptor beta (Homo sapiens) (P10826 whole entry): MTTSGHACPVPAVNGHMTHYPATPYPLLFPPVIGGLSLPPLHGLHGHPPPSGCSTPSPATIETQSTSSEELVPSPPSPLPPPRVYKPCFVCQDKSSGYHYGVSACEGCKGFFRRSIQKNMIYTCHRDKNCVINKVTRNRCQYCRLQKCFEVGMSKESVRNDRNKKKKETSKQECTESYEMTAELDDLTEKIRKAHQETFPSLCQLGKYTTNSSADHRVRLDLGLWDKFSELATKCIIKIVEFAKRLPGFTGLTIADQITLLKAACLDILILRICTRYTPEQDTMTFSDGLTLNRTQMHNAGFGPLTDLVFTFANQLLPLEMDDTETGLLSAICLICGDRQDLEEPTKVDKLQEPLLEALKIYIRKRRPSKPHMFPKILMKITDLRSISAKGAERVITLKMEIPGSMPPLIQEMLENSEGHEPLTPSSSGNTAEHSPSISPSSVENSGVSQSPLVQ

HepG2 = test: Cytotoxicity against human HepG2 cells incubated upto 100 uM for 24 hrs by CCK8 assay; assay type: toxicity, cell-based; details: hepg2, 24 h
[11] = Anti-cholestatic activity in ANIT-induced C57BL/6Nifdc mouse model assessed as downregulation of proinflammatory Il1b gene at 0.03 to 0.1 mg/kg, po upto 42 hrs measured after 48 hrs; assay type: ADME, organism-based; details: in vivo, 90 h, dose 0.03-0.1 mg/kg
[12] = Anti-cholestatic activity in ANIT-induced C57BL/6Nifdc mouse model assessed as decrease in liver GHCA at 0.03 to 0.1 mg/kg, po upto 42 hrs measured after 48 hrs; assay type: ADME, organism-based; details: in vivo, 90 h, dose 0.03-0.1 mg/kg
[13] = Anti-cholestatic activity in ANIT-induced C57BL/6Nifdc mouse model assessed as decrease in liver 3-DHCA at 0.03 to 0.1 mg/kg, po upto 42 hrs measured after 48 hrs; assay type: ADME, organism-based; details: in vivo, 90 h, dose 0.03-0.1 mg/kg
[14] = Anti-fibrosis activity in Ccl4-induced C57BL/6Nifdc mouse model assessed as decrease in inflammatory cells administered orally for 3 weeks; assay type: ADME, cell-based; details: in vivo, po, 504 h, dose 0.03-0.1 mg/kg
[15] = Upregulation of Mdr2 gene expression in C57BL/6JNifdc mouse liver assessed as increased efflux of bile acid administered at 0.03 to 0.1 mg/kg, po for 3 days measured after 6 hrs of last administration by real-time PCR analysis; assay type: ADME, organism-based; details: in vivo, 78 h, dose 0.03-0.1 mg/kg, time 3.25 day
[16] = molecular target: Nuclear receptor ROR-beta (Homo sapiens) (UniProt Q92753); test: Agonist activity at RORbeta (unknown origin) transfected in african green monkey COS7 cells assessed transactivation incubated at 1 uM for 16 hrs by luciferase assay; assay type: cell-based
Chain of Nuclear receptor ROR-beta (Homo sapiens) (Q92753 whole entry): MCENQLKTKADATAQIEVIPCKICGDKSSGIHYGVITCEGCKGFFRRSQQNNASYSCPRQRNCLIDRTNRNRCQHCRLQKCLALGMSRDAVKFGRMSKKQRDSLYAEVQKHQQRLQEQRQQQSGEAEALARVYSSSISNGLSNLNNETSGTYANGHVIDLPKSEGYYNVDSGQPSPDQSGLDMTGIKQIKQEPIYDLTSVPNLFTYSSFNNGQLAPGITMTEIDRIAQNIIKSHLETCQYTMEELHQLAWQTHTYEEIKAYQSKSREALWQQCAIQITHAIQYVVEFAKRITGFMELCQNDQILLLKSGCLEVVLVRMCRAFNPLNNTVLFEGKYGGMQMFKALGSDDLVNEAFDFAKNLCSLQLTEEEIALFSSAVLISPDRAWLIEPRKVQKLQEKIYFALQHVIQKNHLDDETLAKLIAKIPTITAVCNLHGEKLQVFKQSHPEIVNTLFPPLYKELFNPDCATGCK

[17] = Clearance in fasted Sprague-Dawley rat at 10 mg/kg, po measured at 0.083 to 24 hrs by LC-MS/MS analysis; assay type: ADME, organism-based; details: in vivo, time 0.083-24 hrs
[18] = molecular target: Retinoic acid receptor RXR-alpha (Homo sapiens) (UniProt P19793); test: Agonist activity at RXRalpha (unknown origin) transfected in african green monkey COS7 cells assessed transactivation incubated at 1 uM for 16 hrs by luciferase assay; assay type: cell-based
Chain of Retinoic acid receptor RXR-alpha (Homo sapiens) (P19793 whole entry): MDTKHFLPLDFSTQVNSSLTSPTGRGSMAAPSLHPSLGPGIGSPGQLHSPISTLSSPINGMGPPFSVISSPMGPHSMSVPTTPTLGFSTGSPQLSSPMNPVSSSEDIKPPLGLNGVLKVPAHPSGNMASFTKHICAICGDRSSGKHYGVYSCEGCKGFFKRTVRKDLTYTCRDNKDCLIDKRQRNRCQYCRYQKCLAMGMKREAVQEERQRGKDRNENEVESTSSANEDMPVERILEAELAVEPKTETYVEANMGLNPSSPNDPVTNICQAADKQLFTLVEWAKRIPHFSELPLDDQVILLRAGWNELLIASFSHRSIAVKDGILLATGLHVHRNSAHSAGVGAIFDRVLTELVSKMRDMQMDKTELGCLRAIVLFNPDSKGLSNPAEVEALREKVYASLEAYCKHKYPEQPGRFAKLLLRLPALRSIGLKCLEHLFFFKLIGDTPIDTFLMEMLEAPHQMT

[19] = Anti-cholestatic activity in ANIT-induced C57BL/6Nifdc mouse model assessed as decrease in liver DHCA at 0.03 to 0.1 mg/kg, po upto 42 hrs measured after 48 hrs; assay type: ADME, organism-based; details: in vivo, 90 h, dose 0.03-0.1 mg/kg
[20] = In vivo upregulation of PPAR delta in C57BL/6JNifdc mouse liver administered orally for 3 days measured after 6 hrs of last administration by real-time PCR analysis; assay type: ADME, organism-based; details: po, 78 h, dose 0.03-0.1 mg/kg
[21] = Anti-cholestatic activity in ANIT-induced C57BL/6Nifdc mouse model assessed as decrease in liver TCDCA at 0.03 to 0.1 mg/kg, po upto 42 hrs measured after 48 hrs; assay type: ADME, organism-based; details: in vivo, 90 h, dose 0.03-0.1 mg/kg
[22] = Anti-cholestatic activity in ANIT-induced C57BL/6Nifdc mouse model assessed as decrease in liver CA at 0.03 to 0.1 mg/kg, po upto 42 hrs measured after 48 hrs; assay type: ADME, organism-based; details: in vivo, 90 h, dose 0.03-0.1 mg/kg
[23] = Down-streaming of Oatp1 gene expression in C57BL/6JNifdc mouse liver assessed as hepatic resorption of bile acid administered at 0.03 mg/kg, po for 3 days measured after 6 hrs of last administration by real-time PCR analysis; assay type: ADME, organism-based; details: in vivo, 78 h
[24] = Down-streaming of Oatp1 gene expression in C57BL/6JNifdc mouse liver assessed as hepatic resorption of bile acid administered at 0.03 to 0.1 mg/kg, po for 3 days measured after 6 hrs of last administration by real-time PCR analysis; assay type: ADME, organism-based; details: in vivo, 78 h, dose 0.03-0.1 mg/kg, time 3.25 day
[25] = molecular target: Nuclear receptor subfamily 1 group I member 2 (Homo sapiens, UniProt O75469); test: Agonist activity at PXR (unknown origin) transfected in african green monkey COS7 cells assessed transactivation incubated at 1 uM for 16 hrs by luciferase assay; assay type: cell-based; details: cos7, 16 h
Chain of Nuclear receptor subfamily 1 group I member 2 (O75469 whole entry): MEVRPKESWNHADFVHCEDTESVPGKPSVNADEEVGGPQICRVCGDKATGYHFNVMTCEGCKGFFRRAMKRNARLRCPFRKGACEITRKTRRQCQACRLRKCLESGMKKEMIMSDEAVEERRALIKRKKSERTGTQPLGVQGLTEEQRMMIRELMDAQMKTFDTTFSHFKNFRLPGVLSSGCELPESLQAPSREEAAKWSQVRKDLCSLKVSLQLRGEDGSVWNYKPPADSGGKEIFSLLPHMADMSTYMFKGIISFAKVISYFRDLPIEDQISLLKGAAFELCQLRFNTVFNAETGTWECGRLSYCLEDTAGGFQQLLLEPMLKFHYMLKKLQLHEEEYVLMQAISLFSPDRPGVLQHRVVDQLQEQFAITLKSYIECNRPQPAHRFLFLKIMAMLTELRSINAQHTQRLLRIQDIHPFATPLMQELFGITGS

[26] = Upregulation of Mrp3 gene expression in C57BL/6JNifdc mouse liver assessed as increased efflux of bile acid administered at 0.03 to 0.1 mg/kg, po for 3 days measured after 6 hrs of last administration by real-time PCR analysis; assay type: ADME, organism-based; details: in vivo, 78 h, dose 0.03-0.1 mg/kg, time 3.25 day
[27] = Clearance in fasted Sprague-Dawley rat at 2 mg/kg, IV measured at 0.083 to 24 hrs by LC-MS/MS analysis; assay type: ADME, organism-based; details: in vivo, time 0.083-24 hrs
[28] = Acute toxicity in mouse assessed as mortality administered orally for 14 days; details: in vivo, po, 336 h, time 14 day
[29] = Down-streaming of Cyp7a1 gene expression in C57BL/6JNifdc mouse liver assessed as hepatic resorption of bile acid administered at 0.03 mg/kg, po for 3 days measured after 6 hrs of last administration by real-time PCR analysis; assay type: ADME, organism-based; details: in vivo, 78 h
[30] = AUC in fasted Sprague-Dawley rat at 2 mg/kg, IV measured at 0.083 to 24 hrs by LC-MS/MS analysis; assay type: ADME, organism-based; set-up: dose 2 mg/kg, time upper 24 hrs, time lower 0.083 hrs, route iv; details: in vivo
[31] = Oral bioavailability in fasted Sprague-Dawley rat at 10 mg/kg measured at 0.083 to 24 hrs by LC-MS/MS analysis; assay type: ADME, organism-based; details: in vivo, time 0.083-24 hrs

## Cc1cc(CN2C(=O)CN(c3ccc(C(F)(F)F)cc3)C2=O)cc(C)c1OC(C)(C)C(=O)O
[1]
  Activity: Active
[2]
  Activity: Active
[3]
  Activity: Active
[4]
  Activity: Active
[5]
  Activity: Dose-Dependent Effect
[6]
  Activity: Active
[7]
  Activity: Active
[8]
  Activity: Active
[9]
  Activity: Active
[10]
  Activity: inactive
HepG2
  Activity: Non-Toxic
[11]
  Activity: Active
[12]
  Activity: Active
[13]
  Activity: Active
[14]
  Activity: Dose-Dependent Effect
[15]
  Activity: Active
[16]
  Activity: inactive
[17]
  CL: 7.6 mL/min/kg
[18]
  Activity: inactive
[19]
  Activity: Active
[20]
  Activity: Dose-Dependent Effect
[21]
  Activity: Active
[22]
  Activity: Active
[23]
  Activity: Active
[24]
  Activity: Active
[25]
  Activity: Not Active
[26]
  Activity: Active
[27]
  CL: 8.4 mL/min/kg
[28]
  Activity: Non-Toxic
[29]
  Activity: Active
[30]
  AUC: 4250 ng·h/mL
[31]
  bioavailability: 105%
